System: CD4+ T cells
Assay: IFN-γ ELISPOT of CD4+ T cells presensitized with overlapping NY-ESO-1 18 mer peptides
Format: cell-based, human
Conditions: for Patient T cells 1 / Patient T cells 2 / Patient T cells 3: IFN-γ ELISPOT; for Patient T cells 1: day 12, CD4+ T cells of patient 1, autologous peptide pulsed EBV-B cells as targets; for Patient T cells 2: day 12, CD4+ T cells of patient 2, autologous peptide pulsed EBV-B cells as targets; for Patient T cells 3: day 12, CD4+ T cells of patient 3, autologous peptide pulsed EBV-B cells as targets; for patients whose CD4+ T cells recognized the peptide: three patients tested
Procedure: Peripheral blood mono-nuclear cells (“PBMCs”) were separated from heparinized blood via Ficoll density gradient separation, using standard, art recognized techniques. Once this was done, the CD4^+ and CD8^+ T cells were separated from each other using magnetic cell sorting techniques which are well known to the art, producing CD4^+, CD8^+, and CD4^−/CD8^− cell populations.
A series of 18 mer peptides were prepared from the amino acid sequence of NY-ESO-1 as set forth in, e.g., U.S. Pat. No. 5,804,381, incorporated by reference. The peptides were designed to cover the entire sequence of NY-ESO-1, and to provide overlap.
The peptides were then individually pulsed to antigen presenting cells (“APCs”). These were CD4^−/CD8^− PBMCs taken from the same subjects who had provided the CD4^+ and CD8^+ cells. These APCs were irradiated with 3000 rads, and then pulsed with one of the peptides, at a concentration of 10 μg/ml, for 1 hour, in serum free medium. These APCs were then washed, and added to the CD4^+ cells. In the pulsing experiments, the peptides were solubilized in DMSO (100%) and then diluted with PBS to a final concentration of 10% DMSO. The CD4^+ cells had been cultured in a medium of L-arginine (242 mg/l), L-asparagene (50 mg/l), L-glutamine (300 mg/l), penicillin (10 IU/ml), streptomycin (100 μg/ml), 1% non-essential amino acids, 10% HS, and 10 ng/ml of recombinant human IL-2.
The CD4^+ T cells were restimulated weekly with 1 μg/ml of the peptide being used. On day 12, each CD4^+ culture was assayed for NY-ESO-1 peptide recognition, using the ELISPOT assay of lager, et al., Proc. Natl. Acad. Sci. USA, 97(9):4760-4765 (2000), incorporated by reference. To elaborate on this procedure, flat-bottomed, 96-well nitrocellulose plates were coated with 5 μg/ml of anti-interferon-gamma antibody and incubated overnight at 4° C. After washing with PBS, plates were blocked with 10% human serum (HS) for 1 hour at 37° C. Depending on the effector:target ratio used, various numbers of presensitized CD4^+ T-cells were added to each well along with 5×10^4 autologous peptide pulsed EBV transfected B cells (“EBV-B cells”) serving as target cells and incubated for 16 hours at 37° C. in TCM without IL-2. Plates were then washed extensively (6 times with a solution of 0.05% Tween 20/PBS), and biotinylated anti-interferon-gamma detection antibody was added at a concentration of 0.5 μg/ml. After incubation for 2 h at 37° C., plates were washed and incubated with ABC-AP Vectastain for 1 hour. Plates were washed again and developed with substrate (BCIP/NPT) until blue spots were visible. The number of blue spots/well represented the proportion of NY-ESO-1 specific CD4^+ T-cells/well was finally counted under the microscope.
The EBV-B-cells were generated from each patients' PBMC following standard methods and maintained in RPMI 1640 medium supplemented with 10 mM Hepes buffer, L-arginine (242 mg/l), L-asparagine (50mg/l), L-glutamine (300 mg/l), penicillin (10 IU/ml), streptomycin (100 μg/ml), 1% non-essential amino acids, and 10% FCS. […] PBMC's or EBV-B-cells were molecularly typed for HLA expression using standard procedures.

Substance	Patient T cells 1	Patient T cells 2	Patient T cells 3	patients whose CD4+ T cells recognized the peptide
P67-84: synthetic 18 mer peptide, amino acids 67-84 of NY-ESO-1 (GAASGLNGCCRCGARGPE; UniProt P78358 67-84, looked up, fragment) [Peptide P67-84]	− (− indicates <50 spots)	− (− indicates <50 spots)	− (− indicates <50 spots)	–
p145-162: synthetic 18 mer peptide, amino acids 145-162 of NY-ESO-1 (LQLSISSCLQQLSLLMWI; UniProt P78358 145-162, looked up, fragment)	− (− indicates <50 spots)	− (− indicates <50 spots)	− (− indicates <50 spots)	–
p115-132: synthetic 18 mer peptide, amino acids 115-132 of NY-ESO-1 (PLPVPGVLLKEFTVSGNI; UniProt P78358 115-132, looked up, fragment)	− (− indicates <50 spots)	− (− indicates <50 spots)	− (− indicates <50 spots)	–
P31-48: synthetic 18 mer peptide, amino acids 31-48 of NY-ESO-1 (AGGPGEAGATGGRGPRGA; UniProt P78358 31-48, looked up, fragment) [Peptide P31-48]	− (− indicates <50 spots)	− (− indicates <50 spots)	− (− indicates <50 spots)	–
p1-18: synthetic 18 mer peptide, amino acids 1-18 of NY-ESO-1 (MQAEGRGTGGSTGDADGP; UniProt P78358 1-18, looked up, fragment)	− (− indicates <50 spots)	− (− indicates <50 spots)	− (− indicates <50 spots)	–
p109-126: synthetic 18 mer peptide, amino acids 109-126 of NY-ESO-1 (LAQDAPPLPVPGVLLKEF; UniProt P78358 109-126, looked up, fragment)	− (− indicates <50 spots)	− (− indicates <50 spots)	− (− indicates <50 spots)	–
P19-36: synthetic 18 mer peptide, amino acids 19-36 of NY-ESO-1 (GGPGIPDGPGGNAGGPGE; UniProt P78358 19-36, looked up, fragment) [Peptide P19-36]	− (− indicates <50 spots)	− (− indicates <50 spots)	− (− indicates <50 spots)	–
p85-102: synthetic 18 mer peptide, amino acids 85-102 of NY-ESO-1 (SRLLEFYLAMPFATPMEA; UniProt P78358 85-102, looked up, fragment)	− (− indicates <50 spots)	− (− indicates <50 spots)	− (− indicates <50 spots)	–
p157-174: synthetic 18 mer peptide, amino acids 157-174 of NY-ESO-1 (SLLMWITQCFLPVFLAQP; UniProt P78358 157-174, looked up, fragment)	− (− indicates <50 spots)	− (− indicates <50 spots)	− (− indicates <50 spots)	–
p163-180: synthetic 18 mer peptide, amino acids 163-180 of NY-ESO-1 (TQCFLPVFLAQPPSGQRR; UniProt P78358 163-180, looked up, fragment)	− (− indicates <50 spots)	− (− indicates <50 spots)	− (− indicates <50 spots)	–
p103-120: synthetic 18 mer peptide, amino acids 103-120 of NY-ESO-1 (ELARRSLAQDAPPLPVPG; UniProt P78358 103-120, looked up, fragment)	− (− indicates <50 spots)	+ (+ indicates >50 spots (all + scores indicated were >100 spots))	− (− indicates <50 spots)	one patient
P37-54: synthetic 18 mer peptide, amino acids 37-54 of NY-ESO-1 (AGATGGRGPRGAGAARAS; UniProt P78358 37-54, looked up, fragment) [Peptide P37-54]	− (− indicates <50 spots)	− (− indicates <50 spots)	− (− indicates <50 spots)	–
p91-108: synthetic 18 mer peptide, amino acids 91-108 of NY-ESO-1 (YLAMPFATPMEAELARRS; UniProt P78358 91-108, looked up, fragment)	− (− indicates <50 spots)	− (− indicates <50 spots)	− (− indicates <50 spots)	–
P43-60: synthetic 18 mer peptide, amino acids 43-60 of NY-ESO-1 (RGPRGAGAARASGPGGGA; UniProt P78358 43-60, looked up, fragment) [Peptide P43-60]	− (− indicates <50 spots)	+ (+ indicates >50 spots (all + scores indicated were >100 spots))	− (− indicates <50 spots)	one patient
P25-42: synthetic 18 mer peptide, amino acids 25-42 of NY-ESO-1 (DGPGGNAGGPGEAGATGG; UniProt P78358 25-42, looked up, fragment) [Peptide P25-42]	− (− indicates <50 spots)	− (− indicates <50 spots)	− (− indicates <50 spots)	–
p139-156: synthetic 18 mer peptide, amino acids 139-156 of NY-ESO-1 (AADHRQLQLSISSCLQQL; UniProt P78358 139-156, looked up, fragment)	− (− indicates <50 spots)	− (− indicates <50 spots)	− (− indicates <50 spots)	–
p151-168: synthetic 18 mer peptide, amino acids 151-168 of NY-ESO-1 (SCLQQLSLLMWITQCFLP; UniProt P78358 151-168, looked up, fragment)	− (− indicates <50 spots)	− (− indicates <50 spots)	− (− indicates <50 spots)	–
p97-114: synthetic 18 mer peptide, amino acids 97-114 of NY-ESO-1 (ATPMEAELARRSLAQDAP; UniProt P78358 97-114, looked up, fragment)	− (− indicates <50 spots)	+ (+ indicates >50 spots (all + scores indicated were >100 spots))	− (− indicates <50 spots)	one patient
p127-144: synthetic 18 mer peptide, amino acids 127-144 of NY-ESO-1 (TVSGNILTIRLTAADHRQ; UniProt P78358 127-144, looked up, fragment)	− (− indicates <50 spots)	− (− indicates <50 spots)	− (− indicates <50 spots)	–
p133-150: synthetic 18 mer peptide, amino acids 133-150 of NY-ESO-1 (LTIRLTAADHRQLQLSIS; UniProt P78358 133-150, looked up, fragment)	− (− indicates <50 spots)	− (− indicates <50 spots)	− (− indicates <50 spots)	–
p7-24: synthetic 18 mer peptide, amino acids 7-24 of NY-ESO-1 (GTGGSTGDADGPGGPGIP; UniProt P78358 7-24, looked up, fragment)	− (− indicates <50 spots)	− (− indicates <50 spots)	− (− indicates <50 spots)	–
